{"source": "paper doi:10.1101/2023.11.24.568596v1", "about": "(biorxiv, 2023)", "details_in_all_cases": "binder", "key": {"MST1": {"molecular_target": "T1, MST1 (Homo sapiens, UniProt Q13043)", "T1 sequence (Q13043 1-487)": "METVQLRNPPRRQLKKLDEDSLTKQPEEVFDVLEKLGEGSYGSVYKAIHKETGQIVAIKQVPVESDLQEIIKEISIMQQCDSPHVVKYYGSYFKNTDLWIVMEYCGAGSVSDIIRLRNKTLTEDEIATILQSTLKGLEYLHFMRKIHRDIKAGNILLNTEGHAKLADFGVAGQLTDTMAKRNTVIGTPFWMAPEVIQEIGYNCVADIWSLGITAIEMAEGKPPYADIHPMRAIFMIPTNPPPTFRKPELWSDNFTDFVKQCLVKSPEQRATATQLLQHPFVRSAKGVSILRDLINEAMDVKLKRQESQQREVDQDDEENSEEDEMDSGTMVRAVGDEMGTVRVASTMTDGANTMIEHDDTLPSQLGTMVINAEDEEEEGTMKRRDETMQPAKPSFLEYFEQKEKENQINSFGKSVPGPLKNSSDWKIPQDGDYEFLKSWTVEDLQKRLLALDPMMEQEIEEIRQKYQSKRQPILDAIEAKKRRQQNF"}, "MST3": {"molecular_target": "MST3 (Homo sapiens, UniProt Q9Y6E0)", "sequence (Q9Y6E0 whole entry)": "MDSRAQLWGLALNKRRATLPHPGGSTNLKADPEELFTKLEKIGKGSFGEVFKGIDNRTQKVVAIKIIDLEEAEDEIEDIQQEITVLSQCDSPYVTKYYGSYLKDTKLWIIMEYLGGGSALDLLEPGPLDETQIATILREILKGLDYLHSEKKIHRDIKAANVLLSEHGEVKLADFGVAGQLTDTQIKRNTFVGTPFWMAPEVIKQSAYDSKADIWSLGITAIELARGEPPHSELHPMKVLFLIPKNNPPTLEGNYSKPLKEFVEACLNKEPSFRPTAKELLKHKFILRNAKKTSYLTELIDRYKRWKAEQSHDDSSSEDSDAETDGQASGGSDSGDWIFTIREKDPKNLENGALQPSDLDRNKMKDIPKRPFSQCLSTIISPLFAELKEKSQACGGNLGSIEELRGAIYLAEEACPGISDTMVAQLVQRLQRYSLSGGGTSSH"}, "MARK3": {"molecular_target": "MARK3 (Homo sapiens, UniProt P27448)", "sequence (P27448 whole entry)": "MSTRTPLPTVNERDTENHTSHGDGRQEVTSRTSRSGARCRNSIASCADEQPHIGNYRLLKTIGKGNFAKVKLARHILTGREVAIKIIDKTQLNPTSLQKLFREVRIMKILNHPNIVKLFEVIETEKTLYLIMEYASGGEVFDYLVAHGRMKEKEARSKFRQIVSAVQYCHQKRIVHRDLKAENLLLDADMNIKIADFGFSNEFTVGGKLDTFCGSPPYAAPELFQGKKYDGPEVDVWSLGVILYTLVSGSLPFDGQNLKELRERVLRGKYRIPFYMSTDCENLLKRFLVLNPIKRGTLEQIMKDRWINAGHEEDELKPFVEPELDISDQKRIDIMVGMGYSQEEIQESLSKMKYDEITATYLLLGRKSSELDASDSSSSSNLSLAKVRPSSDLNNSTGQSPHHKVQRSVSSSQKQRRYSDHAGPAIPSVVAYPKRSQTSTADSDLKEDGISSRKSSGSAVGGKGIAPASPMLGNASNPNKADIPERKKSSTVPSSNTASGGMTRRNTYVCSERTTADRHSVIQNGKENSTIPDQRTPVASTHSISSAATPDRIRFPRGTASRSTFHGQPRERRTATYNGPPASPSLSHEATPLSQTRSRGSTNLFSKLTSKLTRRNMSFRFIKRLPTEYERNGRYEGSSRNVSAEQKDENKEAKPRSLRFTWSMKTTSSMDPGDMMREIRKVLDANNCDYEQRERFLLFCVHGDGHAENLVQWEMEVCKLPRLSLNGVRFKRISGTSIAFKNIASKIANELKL"}, "SRC": {"molecular_target": "SRC (Homo sapiens, UniProt P12931)", "sequence (P12931 whole entry)": "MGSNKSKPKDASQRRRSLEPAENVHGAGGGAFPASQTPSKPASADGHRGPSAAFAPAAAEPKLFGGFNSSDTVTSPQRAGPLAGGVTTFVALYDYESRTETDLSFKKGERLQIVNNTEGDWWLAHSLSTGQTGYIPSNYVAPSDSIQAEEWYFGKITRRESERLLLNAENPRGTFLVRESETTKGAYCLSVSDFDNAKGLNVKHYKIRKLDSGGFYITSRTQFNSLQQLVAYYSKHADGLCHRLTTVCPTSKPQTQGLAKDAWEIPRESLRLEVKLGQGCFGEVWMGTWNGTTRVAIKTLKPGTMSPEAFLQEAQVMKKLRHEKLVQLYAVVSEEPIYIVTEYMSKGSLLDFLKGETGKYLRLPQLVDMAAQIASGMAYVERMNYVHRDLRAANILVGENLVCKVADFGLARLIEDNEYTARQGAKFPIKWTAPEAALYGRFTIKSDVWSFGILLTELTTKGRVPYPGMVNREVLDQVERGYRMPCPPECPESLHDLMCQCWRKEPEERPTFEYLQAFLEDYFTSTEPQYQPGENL"}, "SRPK1": {"molecular_target": "SRPK1 (Homo sapiens, UniProt Q96SB4)", "sequence (Q96SB4 whole entry)": "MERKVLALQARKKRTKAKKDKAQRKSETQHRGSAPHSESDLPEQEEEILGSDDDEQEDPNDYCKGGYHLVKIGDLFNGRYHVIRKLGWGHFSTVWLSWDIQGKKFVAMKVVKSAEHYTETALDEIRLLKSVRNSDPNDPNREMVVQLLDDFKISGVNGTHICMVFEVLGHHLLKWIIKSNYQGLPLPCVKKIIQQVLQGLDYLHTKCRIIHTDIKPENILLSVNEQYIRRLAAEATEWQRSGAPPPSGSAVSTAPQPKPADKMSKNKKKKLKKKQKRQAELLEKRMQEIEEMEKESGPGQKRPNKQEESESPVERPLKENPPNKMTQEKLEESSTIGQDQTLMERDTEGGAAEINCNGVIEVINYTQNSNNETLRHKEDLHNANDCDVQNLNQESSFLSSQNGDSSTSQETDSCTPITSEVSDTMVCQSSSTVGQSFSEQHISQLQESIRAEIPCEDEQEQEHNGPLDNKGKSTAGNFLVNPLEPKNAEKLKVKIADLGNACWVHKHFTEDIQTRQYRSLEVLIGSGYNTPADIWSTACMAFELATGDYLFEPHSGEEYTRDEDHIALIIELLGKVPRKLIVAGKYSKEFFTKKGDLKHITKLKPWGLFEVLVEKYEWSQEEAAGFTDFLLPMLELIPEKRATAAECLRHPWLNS"}, "ULK3": {"molecular_target": "T2, ULK3 (Homo sapiens, UniProt Q6PHR2)", "T2 sequence (Q6PHR2 1-472)": "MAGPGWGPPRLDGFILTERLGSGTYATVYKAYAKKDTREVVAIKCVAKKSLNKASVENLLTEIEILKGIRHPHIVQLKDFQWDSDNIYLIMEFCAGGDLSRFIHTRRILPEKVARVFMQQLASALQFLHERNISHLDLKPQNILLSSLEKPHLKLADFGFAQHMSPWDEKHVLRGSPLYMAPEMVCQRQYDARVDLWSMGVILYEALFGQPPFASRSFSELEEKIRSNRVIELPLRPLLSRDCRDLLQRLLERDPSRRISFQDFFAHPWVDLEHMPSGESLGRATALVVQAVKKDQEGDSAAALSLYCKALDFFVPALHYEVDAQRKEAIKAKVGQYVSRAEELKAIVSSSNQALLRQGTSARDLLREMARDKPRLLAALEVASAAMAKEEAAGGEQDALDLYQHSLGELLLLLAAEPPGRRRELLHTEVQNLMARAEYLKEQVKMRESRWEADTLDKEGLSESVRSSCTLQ"}, "GSK3B": {"molecular_target": "GSK3B (Homo sapiens, UniProt P49841)", "sequence (P49841 whole entry)": "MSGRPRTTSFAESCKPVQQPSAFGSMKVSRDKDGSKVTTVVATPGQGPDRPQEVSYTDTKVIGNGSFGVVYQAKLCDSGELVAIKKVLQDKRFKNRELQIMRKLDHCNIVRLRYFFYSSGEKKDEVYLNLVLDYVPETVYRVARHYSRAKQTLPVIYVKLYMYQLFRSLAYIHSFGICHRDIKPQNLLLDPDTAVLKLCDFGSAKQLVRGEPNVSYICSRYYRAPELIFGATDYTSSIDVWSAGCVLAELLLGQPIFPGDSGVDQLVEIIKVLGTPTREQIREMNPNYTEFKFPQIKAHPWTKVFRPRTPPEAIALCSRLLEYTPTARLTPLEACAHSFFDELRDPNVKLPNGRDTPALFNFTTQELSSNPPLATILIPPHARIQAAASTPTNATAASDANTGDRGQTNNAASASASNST"}, "FECH": {"molecular_target": "T3, FECH (Homo sapiens, UniProt P22830)", "T3 sequence (P22830 1-423)": "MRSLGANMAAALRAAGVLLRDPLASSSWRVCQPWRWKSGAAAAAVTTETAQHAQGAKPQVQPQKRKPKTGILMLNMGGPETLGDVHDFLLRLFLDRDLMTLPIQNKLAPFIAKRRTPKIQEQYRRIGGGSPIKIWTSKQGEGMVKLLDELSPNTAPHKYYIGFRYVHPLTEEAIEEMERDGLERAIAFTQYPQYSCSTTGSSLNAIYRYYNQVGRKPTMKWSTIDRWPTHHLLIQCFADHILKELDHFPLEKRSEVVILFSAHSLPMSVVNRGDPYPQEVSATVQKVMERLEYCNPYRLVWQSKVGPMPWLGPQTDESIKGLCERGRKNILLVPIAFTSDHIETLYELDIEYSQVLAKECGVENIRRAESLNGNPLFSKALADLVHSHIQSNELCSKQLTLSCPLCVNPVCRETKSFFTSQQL"}, "MST2": {"molecular_target": "T4, MST2 (Homo sapiens, UniProt Q13188)", "T4 sequence (Q13188 1-491)": "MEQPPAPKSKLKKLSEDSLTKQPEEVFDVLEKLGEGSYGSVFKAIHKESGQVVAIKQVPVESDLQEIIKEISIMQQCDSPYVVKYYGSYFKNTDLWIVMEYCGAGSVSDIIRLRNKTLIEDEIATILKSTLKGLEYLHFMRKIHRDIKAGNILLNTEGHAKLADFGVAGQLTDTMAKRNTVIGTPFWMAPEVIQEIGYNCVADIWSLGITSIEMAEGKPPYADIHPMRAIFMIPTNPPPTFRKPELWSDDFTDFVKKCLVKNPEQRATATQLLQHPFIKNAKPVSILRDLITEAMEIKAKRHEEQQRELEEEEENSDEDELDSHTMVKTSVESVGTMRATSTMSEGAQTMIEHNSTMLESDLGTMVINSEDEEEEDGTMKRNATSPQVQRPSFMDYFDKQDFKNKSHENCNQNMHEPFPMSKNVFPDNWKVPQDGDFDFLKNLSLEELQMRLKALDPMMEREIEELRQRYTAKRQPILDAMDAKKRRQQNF"}, "MST4": {"molecular_target": "MST4 (Homo sapiens, UniProt Q9P289)", "sequence (Q9P289 whole entry)": "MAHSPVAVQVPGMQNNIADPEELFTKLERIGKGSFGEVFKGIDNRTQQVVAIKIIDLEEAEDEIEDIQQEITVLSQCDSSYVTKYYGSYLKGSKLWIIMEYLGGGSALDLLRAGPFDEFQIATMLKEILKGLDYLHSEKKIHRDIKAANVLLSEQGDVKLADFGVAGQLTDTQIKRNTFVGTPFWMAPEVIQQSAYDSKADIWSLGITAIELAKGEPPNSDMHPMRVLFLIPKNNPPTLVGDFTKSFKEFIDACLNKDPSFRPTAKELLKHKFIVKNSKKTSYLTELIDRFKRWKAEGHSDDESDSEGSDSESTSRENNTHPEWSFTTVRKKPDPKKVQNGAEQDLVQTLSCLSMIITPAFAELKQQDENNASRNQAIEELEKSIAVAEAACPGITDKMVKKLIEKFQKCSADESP"}}}
{"smiles": "Cc1cccc(-c2ccc(-c3cc4cnc(NCCCN5CCCC5=O)nc4n(CCCCN)c3=O)c(Cl)c2)n1", "note": "[compound 27, MR30]", "values": [{"measurement": "dTm MST1", "setting": "MST1", "result": 1.1, "unit": "°C"}, {"measurement": "dTm MST3", "setting": "MST3", "result": 10.6, "unit": "°C"}, {"measurement": "ΔTm MR30 (27)", "setting": "MARK3", "result": 4.7, "unit": "°C"}, {"measurement": "ΔTm MR30 (27)", "setting": "SRC", "result": -0.5, "unit": "°C"}, {"measurement": "ΔTm MR30 (27)", "setting": "SRPK1", "result": -0.2, "unit": "°C"}, {"measurement": "ΔTm MR30 (27)", "setting": "ULK3", "result": 7.3, "unit": "°C"}, {"measurement": "ΔTm MR30 (27)", "setting": "GSK3B", "result": 1.9, "unit": "°C"}, {"measurement": "ΔTm MR30 (27)", "setting": "FECH", "result": 0.5, "unit": "°C"}, {"measurement": "dTm MST2", "setting": "MST2", "result": 2.2, "unit": "°C"}, {"measurement": "dTm MST4", "setting": "MST4", "result": 7.5, "unit": "°C"}]}
{"smiles": "Cc1cccc(-c2ccc(-c3cc4cnc(Nc5ccc(O)cc5)nc4n(CCCCN)c3=O)c(Cl)c2)n1", "note": "[compound 31, 8-(4-Aminobutyl)-6-(2-chloro-4-(6-methylpyridin-2-yl)phenyl)-2-((4-hydroxyphenyl)amino) pyrido[2,3-d]pyrimidin-7(8H)-one]", "values": [{"measurement": "dTm MST1", "setting": "MST1", "result": 8.0, "unit": "°C"}, {"measurement": "dTm MST3", "setting": "MST3", "result": 17.1, "unit": "°C"}, {"measurement": "ΔTm 31", "setting": "MARK3", "result": 10.9, "unit": "°C"}, {"measurement": "ΔTm 31", "setting": "SRC", "result": 5.0, "unit": "°C"}, {"measurement": "ΔTm 31", "setting": "SRPK1", "result": 0.3, "unit": "°C"}, {"measurement": "ΔTm 31", "setting": "ULK3", "result": 14.5, "unit": "°C"}, {"measurement": "ΔTm 31", "setting": "GSK3B", "result": 3.2, "unit": "°C"}, {"measurement": "ΔTm 31", "setting": "FECH", "result": 2.0, "unit": "°C"}, {"measurement": "dTm MST2", "setting": "MST2", "result": 13.7, "unit": "°C"}, {"measurement": "dTm MST4", "setting": "MST4", "result": 15.0, "unit": "°C"}]}
{"smiles": "Cc1cccc(-c2ccc(-c3cc4cnc(NCCCN5CCNCC5)nc4n(CCCCN)c3=O)c(Cl)c2)n1", "note": "[compound 29, 8-(4-Aminobutyl)-6-(2-chloro-4-(6-methylpyridin-2-yl)phenyl)-2-((3-(piperazin-1-yl)propyl)amino)pyrido[2,3-d]pyrimidin-7(8H)-one]", "values": [{"measurement": "dTm MST1", "setting": "MST1", "result": 3.1, "unit": "°C"}, {"measurement": "dTm MST3", "setting": "MST3", "result": 13.0, "unit": "°C"}, {"measurement": "ΔTm 29", "setting": "MARK3", "result": 5.8, "unit": "°C"}, {"measurement": "ΔTm 29", "setting": "SRC", "result": 1.9, "unit": "°C"}, {"measurement": "ΔTm 29", "setting": "SRPK1", "result": 0.1, "unit": "°C"}, {"measurement": "ΔTm 29", "setting": "ULK3", "result": 5.8, "unit": "°C"}, {"measurement": "ΔTm 29", "setting": "GSK3B", "result": 0.3, "unit": "°C"}, {"measurement": "ΔTm 29", "setting": "FECH", "result": -0.4, "unit": "°C"}, {"measurement": "dTm MST2", "setting": "MST2", "result": 5.2, "unit": "°C"}, {"measurement": "dTm MST4", "setting": "MST4", "result": 8.9, "unit": "°C"}]}
